Results as given in ChEMBL document CHEMBL1201862, “PubChem BioAssay data set” (2004).
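Test compounds were applied to cells in 96-well plates for 48 hours at 5 doses. The concentration for 50% growth inhibition is given as GI50.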 Active and inactive are the calls of the source. Cut-off read from the data, not from the text of the source: active = GI50 up to about 1.1 µM and inactive = higher.

Key:
Assay in all cases: growth of human tumour cells (NCI), 48 h
OVCAR-3 = tested on: OVCAR-3
MDA-MB-231 = tested on: MDA-MB-231
A549 = tested on: A549
HOP-62 = tested on: HOP-62
DU-145 = tested on: DU-145
SK-OV-3 = tested on: SK-OV-3
HCC 2998 = tested on: HCC 2998
U-251 = tested on: U-251
MOLT-4 = tested on: MOLT-4
NCI-H522 = tested on: NCI-H522
OVCAR-8 = tested on: OVCAR-8
UACC-62 = tested on: UACC-62
NCI/ADR-RES = tested on: NCI/ADR-RES
LOX IMVI = tested on: LOX IMVI
NCI-H460 = tested on: NCI-H460
SF-295 = tested on: SF-295
ACHN = tested on: ACHN
MCF7 = tested on: MCF7
K562 = tested on: K562
SK-MEL-2 = tested on: SK-MEL-2

Measured: GI50

COc1ccc(OC)c2c1C=C[C@H](C1(C)SCCS1)C2C(C)=O (some centres not stated)
inactive: OVCAR-3 29.3 µM | MDA-MB-231 32.2 µM | A549 34.1 µM | HOP-62 39.8 µM | DU-145 28.9 µM | SK-OV-3 20.4 µM | HCC 2998 50.1 µM | U-251 26.1 µM | MOLT-4 19.7 µM | NCI-H522 13.9 µM | OVCAR-8 44.2 µM | UACC-62 20.8 µM | NCI/ADR-RES 32.2 µM | LOX IMVI 9.84 µM | NCI-H460 27.9 µM | SF-295 23.9 µM | ACHN 35.2 µM | MCF7 35.4 µM | K562 32.7 µM

O=S(=O)(c1ccccc1)N1CN2CN(C1)CN(S(=O)(=O)c1ccccc1)C2
inactive: OVCAR-3 > 100 µM | SK-MEL-2 > 100 µM | MDA-MB-231 > 100 µM | A549 > 100 µM | HOP-62 > 100 µM | DU-145 > 100 µM | SK-OV-3 > 100 µM | HCC 2998 > 100 µM | U-251 97.3 µM | OVCAR-8 > 100 µM | UACC-62 > 100 µM | NCI/ADR-RES > 100 µM | LOX IMVI > 100 µM | NCI-H460 > 100 µM | SF-295 > 100 µM | ACHN 79.8 µM | MCF7 > 100 µM | K562 > 100 µM

CC1=CC(=O)/C(=C/NC(=S)NCCc2ccccc2)C(=O)O1
inactive: OVCAR-3 > 100 µM | SK-MEL-2 > 100 µM | MDA-MB-231 > 100 µM | A549 > 100 µM | HOP-62 > 100 µM | DU-145 > 100 µM | SK-OV-3 > 100 µM | HCC 2998 > 100 µM | U-251 > 100 µM | MOLT-4 > 100 µM | OVCAR-8 > 100 µM | NCI/ADR-RES > 100 µM | LOX IMVI 30.1 µM | NCI-H460 > 100 µM | SF-295 > 100 µM | ACHN > 100 µM | MCF7 > 100 µM

COc1ccc(C2=C3SC=c4ccccc4=C3ON=C2c2ccccc2)cc1
inactive: OVCAR-3 94.8 µM | SK-MEL-2 > 100 µM | MDA-MB-231 > 100 µM | A549 > 100 µM | HOP-62 > 100 µM | DU-145 > 100 µM | HCC 2998 > 100 µM | U-251 > 100 µM | MOLT-4 37.2 µM | NCI-H522 53.8 µM | OVCAR-8 > 100 µM | UACC-62 > 100 µM | NCI/ADR-RES > 100 µM | LOX IMVI > 100 µM | NCI-H460 > 100 µM | SF-295 > 100 µM | ACHN > 100 µM | MCF7 > 100 µM | K562 22.9 µM

O=C(/C=C/c1c(O)nc2ccccc2c1O)CC(=O)C(=O)Nc1cccc(O)c1
inactive: OVCAR-3 > 100 µM | SK-MEL-2 > 100 µM | MDA-MB-231 > 100 µM | A549 > 100 µM | DU-145 > 100 µM | SK-OV-3 > 100 µM | HCC 2998 > 100 µM | U-251 > 100 µM | MOLT-4 > 100 µM | NCI-H522 > 100 µM | OVCAR-8 > 100 µM | UACC-62 > 100 µM | NCI/ADR-RES > 100 µM | LOX IMVI > 100 µM | NCI-H460 > 100 µM | SF-295 > 100 µM | ACHN > 100 µM | MCF7 > 100 µM | K562 > 100 µM

Cl.O=C(O)c1cccnc1
inactive: OVCAR-3 > 100 µM | MDA-MB-231 > 100 µM | A549 > 100 µM | HOP-62 > 100 µM | DU-145 > 100 µM | HCC 2998 > 100 µM | U-251 > 100 µM | MOLT-4 > 100 µM | NCI-H522 > 100 µM | OVCAR-8 > 100 µM | NCI/ADR-RES > 100 µM | LOX IMVI > 100 µM | NCI-H460 > 100 µM | SF-295 > 100 µM | ACHN > 100 µM | MCF7 > 100 µM | K562 > 100 µM

O=C(C(Cl)=C(N1CCCCC1)N1CCCCC1)C(Cl)Cl
inactive: OVCAR-3 > 100 µM | MDA-MB-231 > 100 µM | A549 > 100 µM | HOP-62 > 100 µM | DU-145 > 100 µM | SK-OV-3 > 100 µM | HCC 2998 > 100 µM | MOLT-4 > 100 µM | NCI-H522 > 100 µM | OVCAR-8 > 100 µM | UACC-62 > 100 µM | NCI/ADR-RES > 100 µM | LOX IMVI > 100 µM | NCI-H460 > 100 µM | SF-295 > 100 µM | ACHN > 100 µM | MCF7 > 100 µM | K562 > 100 µM

CC/C(=C/OC)P1(=O)OC(C)(C)CN1C(C)(C)C (configuration not stated)
inactive: OVCAR-3 > 100 µM | SK-MEL-2 > 100 µM | MDA-MB-231 > 100 µM | A549 > 100 µM | HOP-62 > 100 µM | DU-145 > 100 µM | SK-OV-3 > 100 µM | HCC 2998 > 100 µM | U-251 > 100 µM | OVCAR-8 > 100 µM | UACC-62 > 100 µM | NCI/ADR-RES > 100 µM | LOX IMVI > 100 µM | NCI-H460 > 100 µM | SF-295 > 100 µM | ACHN > 100 µM | MCF7 > 100 µM | K562 > 100 µM

C[C@H](CCC(=O)O)[C@H]1CC[C@H]2[C@@H]3[C@H](O)C[C@@H]4C[C@H](O)CC[C@]4(C)[C@H]3CC[C@]12C [CHENODIOL]
inactive: SK-MEL-2 20 µM | MDA-MB-231 49.3 µM | A549 34.8 µM | HOP-62 37.2 µM | DU-145 43.2 µM | HCC 2998 28.9 µM | U-251 37.6 µM | MOLT-4 24.7 µM | NCI-H522 25.5 µM | OVCAR-8 12.1 µM | UACC-62 36.6 µM | NCI/ADR-RES 36.6 µM | LOX IMVI 32.5 µM | NCI-H460 27.1 µM | ACHN 46.8 µM | MCF7 30.8 µM | K562 35.6 µM

CC(=O)Nc1ccc(C(=O)NN2C(=O)C(Cl)C2c2ccc(Cl)cc2)cc1 (configuration not stated)
inactive: OVCAR-3 18.8 µM | SK-MEL-2 41.6 µM | MDA-MB-231 22.1 µM | A549 > 72.4 µM | HOP-62 22.2 µM | DU-145 > 100 µM | SK-OV-3 25.4 µM | HCC 2998 > 100 µM | U-251 23.9 µM | MOLT-4 > 100 µM | NCI-H522 38.8 µM | OVCAR-8 37 µM | UACC-62 > 100 µM | NCI/ADR-RES > 100 µM | NCI-H460 > 90.4 µM | SF-295 20.6 µM | ACHN > 57.5 µM | MCF7 > 100 µM | K562 > 100 µM

CCN(CC)CC1CN=C(N)O1 (configuration not stated)
inactive: OVCAR-3 > 100 µM | SK-MEL-2 > 100 µM | MDA-MB-231 > 100 µM | A549 > 100 µM | HOP-62 > 100 µM | DU-145 > 100 µM | HCC 2998 > 100 µM | U-251 > 100 µM | MOLT-4 > 100 µM | OVCAR-8 > 100 µM | UACC-62 > 100 µM | NCI/ADR-RES > 100 µM | LOX IMVI > 100 µM | NCI-H460 > 100 µM | SF-295 > 100 µM | ACHN > 100 µM | MCF7 > 100 µM | K562 > 100 µM

N#Cc1ccnc(C(=O)N2CCCC2C(=O)O)c1 (configuration not stated)
inactive: OVCAR-3 > 100 µM | SK-MEL-2 > 100 µM | MDA-MB-231 > 100 µM | A549 > 100 µM | HOP-62 > 100 µM | DU-145 > 100 µM | HCC 2998 > 100 µM | U-251 > 100 µM | MOLT-4 > 100 µM | NCI-H522 > 100 µM | OVCAR-8 > 100 µM | UACC-62 > 100 µM | NCI/ADR-RES > 100 µM | LOX IMVI > 100 µM | NCI-H460 > 100 µM | SF-295 > 100 µM | ACHN > 100 µM | MCF7 > 100 µM | K562 > 82.8 µM

C[C@@]1(c2ccccc2)O[C@@H]2C[C@H]3[C@@H]4CCC5=CC(=O)C=C[C@]5(C)[C@@]4(F)[C@@H](O)C[C@]3(C)[C@]2(C(=O)CO)O1 [AMCINAFIDE]
inactive: OVCAR-3 15 µM | SK-MEL-2 14.4 µM | MDA-MB-231 11.1 µM | A549 11.8 µM | HOP-62 15.6 µM | DU-145 20.1 µM | HCC 2998 17.3 µM | U-251 17.7 µM | NCI-H522 11.5 µM | OVCAR-8 17.5 µM | UACC-62 16.7 µM | NCI/ADR-RES 15 µM | LOX IMVI 23.8 µM | NCI-H460 14.6 µM | SF-295 16.7 µM | ACHN 18.1 µM | MCF7 13.9 µM | K562 12.5 µM

CC(=O)Nc1ccc(C(O)/C(=N/N)c2nc3ccc(Cl)cc3nc2O)cc1 (configuration not stated)
inactive: OVCAR-3 > 100 µM | SK-MEL-2 > 100 µM | MDA-MB-231 > 100 µM | A549 > 100 µM | HOP-62 > 100 µM | DU-145 > 100 µM | HCC 2998 > 100 µM | U-251 > 100 µM | MOLT-4 > 100 µM | NCI-H522 > 100 µM | OVCAR-8 > 100 µM | UACC-62 > 100 µM | NCI/ADR-RES > 100 µM | LOX IMVI > 100 µM | NCI-H460 > 100 µM | SF-295 > 100 µM | ACHN > 100 µM | MCF7 > 100 µM

COc1cc(OC2OC(COC(=O)c3cc(O)c(O)c(O)c3)C(O)C(O)C2O)ccc1O (configuration not stated)
inactive: OVCAR-3 84.1 µM | SK-MEL-2 > 100 µM | MDA-MB-231 34.5 µM | A549 > 100 µM | HOP-62 > 100 µM | DU-145 > 100 µM | HCC 2998 > 100 µM | U-251 > 100 µM | MOLT-4 53.1 µM | NCI-H522 48 µM | OVCAR-8 89.9 µM | NCI/ADR-RES > 100 µM | LOX IMVI 29.5 µM | NCI-H460 > 100 µM | SF-295 78.7 µM | ACHN 55.1 µM | MCF7 53.8 µM | K562 32.7 µM
